Test results reported in the NIST ThermoML archive (doi:10.1021/acs.jced.8b00157).
Several values for one entry are separate records, joined by “and”; a condition that tells them apart may be missing. Equal values may be shown once. Numbers after ± are expanded uncertainties.

Assay: an = ratio of the nth substance listed
Conditions: 100 kPa, Liquid, Buoyancy - hydrostatic balance, a2 = 1.3

[F][Al]([F])[F] [aluminum fluoride] + [F-].[K+]
Conditions	mass density
953.37 K	1875 ± 10 kg/m3
953.87 K	1875 ± 11 kg/m3
954.03 K	1875 ± 11 kg/m3
954.2 K	1874 ± 10 kg/m3
954.52 K	1874 ± 11 kg/m3
954.85 K	1873 ± 10 kg/m3
955.23 K	1873 ± 10 kg/m3
955.66 K	1873 ± 10 kg/m3
955.95 K	1873 ± 10 kg/m3
956.45 K	1873 ± 11 kg/m3
957 K	1872 ± 10 kg/m3
957.09 K	1872 ± 10 kg/m3
957.11 K	1872 ± 11 kg/m3
957.15 K	1872 ± 11 kg/m3
957.8 K	1871 ± 11 kg/m3
958.17 K	1871 ± 11 kg/m3
958.39 K	1870 ± 10 kg/m3
958.54 K	1870 ± 10 kg/m3
958.92 K	1870 ± 10 kg/m3
959.36 K	1870 ± 10 kg/m3
959.42 K	1870 ± 10 kg/m3
959.67 K	1870 ± 10 kg/m3
960.14 K	1869 ± 11 kg/m3
960.36 K	1869 ± 10 kg/m3
961.06 K	1868 ± 10 kg/m3
961.27 K	1868 ± 10 kg/m3
961.32 K	1868 ± 10 kg/m3
961.88 K	1868 ± 10 kg/m3
961.97 K	1868 ± 11 kg/m3
962.58 K	1867 ± 10 kg/m3
962.79 K	1866 ± 10 kg/m3
962.82 K	1867 ± 10 kg/m3
963.09 K	1867 ± 11 kg/m3
963.44 K	1866 ± 10 kg/m3
963.53 K	1866 ± 10 kg/m3
964.23 K	1865 ± 10 kg/m3
964.32 K	1865 ± 11 kg/m3
964.85 K	1865 ± 10 kg/m3
965.05 K	1865 ± 10 kg/m3
965.38 K	1865 ± 10 kg/m3
965.94 K	1864 ± 10 kg/m3
966 K	1864 ± 10 kg/m3
966.18 K	1864 ± 10 kg/m3
966.56 K	1864 ± 10 kg/m3
966.7 K	1863 ± 10 kg/m3
967.24 K	1863 ± 10 kg/m3
967.73 K	1862 ± 10 kg/m3
967.75 K	1862 ± 10 kg/m3
968.06 K	1862 ± 10 kg/m3
968.94 K	1862 ± 11 kg/m3
968.96 K	1862 ± 11 kg/m3
969.15 K	1861 ± 10 kg/m3
969.33 K	1861 ± 10 kg/m3
969.99 K	1861 ± 10 kg/m3
970.3 K	1861 ± 10 kg/m3
970.44 K	1860 ± 10 kg/m3
970.89 K	1860 ± 10 kg/m3
970.98 K	1859 ± 10 kg/m3
971.14 K	1860 ± 11 kg/m3
971.87 K	1859 ± 11 kg/m3
972.13 K	1859 ± 11 kg/m3
972.25 K	1859 ± 11 kg/m3
972.6 K	1859 ± 11 kg/m3
972.98 K	1858 ± 11 kg/m3
973.21 K	1858 ± 11 kg/m3
973.66 K	1858 ± 11 kg/m3
973.77 K	1858 ± 11 kg/m3
973.95 K	1857 ± 11 kg/m3
974.37 K	1857 ± 11 kg/m3
974.77 K	1857 ± 11 kg/m3
975.15 K	1856 ± 11 kg/m3
975.67 K	1856 ± 11 kg/m3
975.77 K	1856 ± 11 kg/m3
975.97 K	1856 ± 11 kg/m3
976.61 K	1855 ± 11 kg/m3
976.86 K	1855 ± 11 kg/m3
976.9 K	1855 ± 11 kg/m3
977.25 K	1854 ± 11 kg/m3
977.4 K	1854 ± 11 kg/m3
977.66 K	1852 ± 11 kg/m3
978.13 K	1852 ± 11 kg/m3
978.34 K	1852 ± 11 kg/m3
978.99 K	1852 ± 11 kg/m3
979.14 K	1851 ± 11 kg/m3
979.65 K	1850 ± 11 kg/m3
979.83 K	1851 ± 11 kg/m3
980.46 K	1850 ± 11 kg/m3
980.58 K	1850 ± 11 kg/m3
980.92 K	1850 ± 11 kg/m3
980.95 K	1850 ± 11 kg/m3
981.3 K	1849 ± 11 kg/m3
981.38 K	1849 ± 11 kg/m3
982.18 K	1849 ± 11 kg/m3
982.5 K	1849 ± 11 kg/m3
982.75 K	1848 ± 11 kg/m3
983.17 K	1848 ± 11 kg/m3
983.33 K	1847 ± 11 kg/m3
983.99 K	1847 ± 10 kg/m3
984.08 K	1847 ± 10 kg/m3
984.17 K	1847 ± 10 kg/m3
984.63 K	1846 ± 10 kg/m3
985 K	1846 ± 10 kg/m3
985.5 K	1846 ± 10 kg/m3
985.61 K	1846 ± 10 kg/m3
986.09 K	1845 ± 10 kg/m3
986.53 K	1845 ± 10 kg/m3
986.96 K	1845 ± 10 kg/m3
987.09 K	1845 ± 10 kg/m3
987.31 K	1844 ± 10 kg/m3
987.8 K	1844 ± 10 kg/m3
988.08 K	1844 ± 10 kg/m3
988.26 K	1844 ± 11 kg/m3
988.64 K	1843 ± 10 kg/m3
988.78 K	1844 ± 10 kg/m3
989.33 K	1843 ± 10 kg/m3
989.41 K	1843 ± 10 kg/m3
990.26 K	1842 ± 10 kg/m3
990.32 K	1842 ± 10 kg/m3
991.02 K	1842 ± 10 kg/m3
991.03 K	1841 ± 10 kg/m3
991.17 K	1842 ± 10 kg/m3
991.49 K	1841 ± 10 kg/m3
992.13 K	1841 ± 10 kg/m3
992.28 K	1840 ± 10 kg/m3
992.47 K	1841 ± 10 kg/m3
992.66 K	1842 ± 10 kg/m3
992.84 K	1842 ± 10 kg/m3
993.1 K	1842 ± 10 kg/m3
993.15 K	1840 ± 10 kg/m3
993.49 K	1839 ± 10 kg/m3
993.5 K	1840 ± 10 kg/m3
993.57 K	1841 ± 10 kg/m3
993.62 K	1840 ± 10 kg/m3
993.79 K	1839 ± 10 kg/m3
993.81 K	1841 ± 10 kg/m3
993.83 K	1841 ± 10 kg/m3
994.35 K	1838 ± 10 kg/m3
994.37 K	1839 ± 10 kg/m3
994.52 K	1838 ± 10 kg/m3
994.62 K	1840 ± 10 kg/m3
995.21 K	1838 ± 10 kg/m3
995.25 K	1840 ± 10 kg/m3
995.47 K	1840 ± 10 kg/m3
995.64 K	1840 ± 10 kg/m3
995.66 K	1838 ± 10 kg/m3
996.05 K	1838 ± 10 kg/m3
996.18 K	1839 ± 10 kg/m3
996.21 K	1838 ± 10 kg/m3
996.6 K	1839 ± 10 kg/m3
996.7 K	1837 ± 10 kg/m3
996.81 K	1836 ± 10 kg/m3
996.88 K	1839 ± 10 kg/m3
997.13 K	1836 ± 10 kg/m3
997.4 K	1836 ± 10 kg/m3
997.41 K	1838 ± 10 kg/m3
997.63 K	1838 ± 10 kg/m3
997.84 K	1837 ± 10 kg/m3
997.92 K	1836 ± 10 kg/m3
997.99 K	1836 ± 10 kg/m3
998.24 K	1835 ± 11 kg/m3
998.66 K	1837 ± 10 kg/m3
998.67 K	1837 ± 11 kg/m3
998.83 K	1835 ± 11 kg/m3
999.09 K	1836 ± 11 kg/m3
999.14 K	1836 ± 11 kg/m3
999.24 K	1836 ± 10 kg/m3
999.27 K	1835 ± 10 kg/m3
999.3 K	1837 ± 10 kg/m3
999.38 K	1837 ± 10 kg/m3
999.39 K	1835 ± 10 kg/m3
999.51 K	1836 ± 10 kg/m3
999.7 K	1834 ± 10 kg/m3
1000.2 K	1834 ± 10 kg/m3
1000.5 K	1835 ± 10 kg/m3
1000.8 K	1833 ± 11 kg/m3
1000.9 K	1834 ± 10 kg/m3
1001.1 K	1835 ± 11 kg/m3
1001.3 K	1834 ± 11 kg/m3
1001.4 K	1833 ± 11 kg/m3
1001.5 K	1834 ± 11 kg/m3
1001.6 K	1833 ± 11 kg/m3
1001.7 K	1834 ± 11 kg/m3
1002.2 K	1832 ± 11 kg/m3 and 1833 ± 10 kg/m3
1002.4 K	1833 ± 11 kg/m3
1002.7 K	1833 ± 11 kg/m3
1002.9 K	1832 ± 11 kg/m3 and 1832 ± 10 kg/m3
1003.4 K	1832 ± 10 kg/m3 and 1832 ± 11 kg/m3
1003.5 K	1831 ± 11 kg/m3
1003.7 K	1832 ± 11 kg/m3
1004.2 K	1831 ± 11 kg/m3
1004.3 K	1831 ± 10 kg/m3 and 1830 ± 10 kg/m3
1004.8 K	1831 ± 11 kg/m3 and 1830 ± 11 kg/m3
1005 K	1831 ± 10 kg/m3
1005.1 K	1831 ± 11 kg/m3 and 1830 ± 11 kg/m3
1005.6 K	1830 ± 11 kg/m3
1005.7 K	1830 ± 11 kg/m3
1006 K	1829 ± 10 kg/m3
1006.3 K	1830 ± 10 kg/m3
1006.4 K	1830 ± 10 kg/m3
1006.5 K	1830 ± 11 kg/m3 and 1829 ± 11 kg/m3
1006.9 K	1829 ± 10 kg/m3 and 1827 ± 10 kg/m3
1007 K	1829 ± 11 kg/m3
1007.1 K	1828 ± 11 kg/m3
1007.3 K	1828 ± 11 kg/m3
1007.4 K	1828 ± 11 kg/m3 and 1829 ± 11 kg/m3
1007.7 K	1827 ± 11 kg/m3
1007.9 K	1827 ± 11 kg/m3
1008 K	1827 ± 11 kg/m3
1008.2 K	1827 ± 11 kg/m3
1008.3 K	1828 ± 11 kg/m3
1008.5 K	1827 ± 11 kg/m3
1008.8 K	1827 ± 11 kg/m3
1009 K	1827 ± 11 kg/m3
1009.2 K	1827 ± 11 kg/m3
1009.4 K	1827 ± 11 kg/m3
1009.6 K	1826 ± 11 kg/m3
1009.8 K	1826 ± 11 kg/m3
1010 K	1825 ± 11 kg/m3
1010.1 K	1825 ± 11 kg/m3
1010.3 K	1825 ± 10 kg/m3
1010.7 K	1825 ± 11 kg/m3
1010.9 K	1825 ± 11 kg/m3
1011 K	1825 ± 11 kg/m3
1011.1 K	1825 ± 11 kg/m3
1011.2 K	1825 ± 11 kg/m3
1011.3 K	1824 ± 11 kg/m3
1011.6 K	1823 ± 10 kg/m3
1011.7 K	1824 ± 11 kg/m3
1012 K	1824 ± 11 kg/m3
1012.2 K	1824 ± 11 kg/m3
1012.4 K	1824 ± 11 kg/m3
1012.5 K	1824 ± 11 kg/m3
1012.6 K	1823 ± 11 kg/m3
1012.9 K	1824 ± 10 kg/m3
1013.1 K	1822 ± 10 kg/m3
1013.4 K	1823 ± 11 kg/m3
